# Assay results taken from patent US10821152B2, “Methods, agents and compositions for treatment of inflammatory conditions” (Betanien Hospital, priority 2014, dated 2020).
# Where “and” joins values, the source holds several entries; their conditions need not be identical. Equal entries are not always repeated. Non-standard residues stand in square brackets, D forms with d. Residues, ends and D or L forms follow the SMILES beside them. *: point of attachment. dPhe(4-NHCONH2) = NC(=O)Nc1ccc(C[C@@H](N)C(=O)O)cc1; Dihydroorotyl(S) = O=C1C[C@@H](C(=O)*)NC(=O)N1; dPhe(4-Cl) = N[C@H](Cc1ccc(Cl)cc1)C(=O)O; Phe(4-NH2) = Nc1ccc(C[C@H](N)C(=O)O)cc1; d2Nal = N[C@H](Cc1ccc2ccccc2c1)C(=O)O; Lys(iPr) = CC(C)NCCCC[C@H](N)C(=O)O; d3Pal = N[C@H](Cc1cccnc1)C(=O)O
# Tests used:
# [1] = tested on: patients with rheumatoid arthritis; experiment: Long term Degarelix treatment of rheumatoid arthritis patients: clinical variables; format: in vivo, human; design: LH: unit not given beside the values
# Source text: [table] [table] […] Two examples of patients with continued RA improvement over several weeks despite stably low levels of LH
# [2] = tested on: patient with multiple sclerosis; experiment: Treatment of progressive multiple sclerosis with Degarelix, with concomitant Famprydine; format: in vivo, human; conditions: MS patient
# Procedure: • person, diagnosed with multiple sclerosis (MS). Their MS was of the progressive type; characterized by a steady deterioration in function. • Fulfilled the 2010 McDonald Criteria for the diagnosis of MS 1. Experimental Treatment • So far results of clinical trials for progressive MS have generally been disappointing. Currently, there is no FDA approved treatment for progressive MS disease. • December 2014 received first dose of Degarelix 240 mg sc. • Received Degarelix 80 mg s.c every two weeks thereafter. Difficulties in Assessing Response in Progressive MS • Almost all trials in progressive MS show a worsening in function over time. The primary endpoint of these trials is usually to be able to show less worsening in the active treatment group compared to the placebo/other treatment group. Worsening is often defined as an increase in the Expanded Disability Status Scale (EDSS). EDSS is severely restrictive as an outcome measure for trials in progressive sclerosis.^2 Trials have not shown improvements in the EDSS or function in MS patients.^2 Optimal outcome measures in progressive MS are open to debate. • Effective imaging outcomes in clinical trials have allowed for the development of treatments for the relapsing-remitting type of MS. […] One of the most important factors in choosing outcome measures for these patients is the meaningfulness to patients. Assessment of Response at 6 Weeks
# This was particularly evident in their ability to raise their feet onto a step, physiotherapy exercises, and dressing. In the past year, they previously had always required their spouse's help to climb a step at home, or to carry out certain lower limb exercises with their physiotherapist. By 4 weeks of GnRH antagonist treatment, they no longer required their spouse's help/physiotherapist's help to perform these activities. They climbed onto a step unaided at […] checkup. The improvement started at around 4 weeks after the initiation of therapy, and continued to improve further by 6 weeks. Expanded Disability Status Scale (EDSS): • This patient's EDSS has remained stable at 6.5, as expected over such a short time period of 6 weeks. A score of 6.5 is equivalent to only being able to walk with the aid of a walker, as in their case. This was evident at baseline and 6 weeks. Multiple Sclerosis Impact Scale 29 (MSIS-29): • Patient-reported outcomes are of increasing importance in trials of progressive multiple sclerosis.^2The most frequently used global patient-reported outcome in multiple sclerosis is the MSIS-29.^3 This has been correlated with clinical and imaging metrics specifically in progressive forms of the disease.^4 According to a recent review,^2 patient reported outcomes in trials of progressive multiple sclerosis can be used to validate MRI or clinical metrics, and increased use of patient-reported outcomes in trials of progressive multiple sclerosis will expected to help satisfy regulators' requirements that treatments show relevant benefit for patients. • At baseline, they scored 121 on the MSIS-29. By 6 weeks, their score was reduced to 110. A clinically significant minimal difference is a score change of 8. Therefore this reduction of 11 in their score is considered clinically significant.^5 Multiple Sclerosis Walking Scale-12 (MSWS-12) • The MSWS-12^6 was designed as a disease-specific patient-based instrument for use in clinical trials and clinical practice, to capture the complex impact of MS on walking ability. […] One of the most important attributes of the MSWS-12 in comparison to other assessments of walking in MS patients, is its responsiveness to change. […] By 6 weeks, their score was reduced to 53. This is a 12% improvement. A minimal clinically significant difference has not yet been established. […]
# [3] = Peripheral GnRH levels by ELISA in patients with autoimmune diseases; format: in vivo, human; conditions: RA Pt A
# Source text: (§1) We analysed peripheral GnRH levels in patients with various autoimmune diseases using ELISA. […] Due to the nature of ELISA assays, the concentration in pg/mL should not necessarily be regarded as absolute, and may be interpreted as relative.
# peripheral GnRH = experiment: as above; format: in vivo, human
# Source text: as §1
# [4] = tested on: patients with rheumatoid arthritis; conditions: human, in vivo
# Source text: They were not taking any therapies for osteoporosis during this period.
smiles,measurement,setting,value
CC(=O)N[C@H](Cc1ccc2ccccc2c1)C(=O)N[C@H](Cc1ccc(Cl)cc1)C(=O)N[C@H](Cc1cccnc1)C(=O)N[C@@H](CO)C(=O)N[C@@H](Cc1ccc(NC(=O)[C@@H]2CC(=O)NC(=O)N2)cc1)C(=O)N[C@H](Cc1ccc(NC(N)=O)cc1)C(=O)N[C@@H](CC(C)C)C(=O)N[C@@H](CCCCNC(C)C)C(=O)N1CCC[C@H]1C(=O)N[C@H](C)C(N)=O [Degarelix] (Ac-[d2Nal][dPhe(4-Cl)][d3Pal]S[Phe(4-NH2)](Dihydroorotyl(S))[dPhe(4-NHCONH2)]L[Lys(iPr)]P[dA]-NH2),ACR % response,"[1]; RA Patient 3, 4 wks",30%
same,ESR,"[1]; RA Patient 3, 4 wks",41
same,LH,"[1]; RA Patient 3, 4 wks",<0.3
same,ACR % response,"[1]; RA Patient 3, 8 wks",40%
same,ESR,"[1]; RA Patient 3, 8 wks",36
same,LH,"[1]; RA Patient 3, 8 wks",<0.3
same,ACR % response,"[1]; RA Patient 3, 12 wks",50%
same,ESR,"[1]; RA Patient 3, 12 wks",20
same,LH,"[1]; RA Patient 3, 12 wks",<0.3
same,ESR,"[1]; RA Patient 3, baseline",46
same,LH,"[1]; RA Patient 3, baseline",2
same,ACR % response,"[1]; RA Patient 4, 3½ wks",20%
same,ESR,"[1]; RA Patient 4, 3½ wks",68
same,LH,"[1]; RA Patient 4, 3½ wks",<0.3
same,ACR % response,"[1]; RA Patient 4, 9 wks",50%
same,ESR,"[1]; RA Patient 4, 9 wks",36
same,LH,"[1]; RA Patient 4, 9 wks",<0.3
same,ESR,"[1]; RA Patient 4, baseline",78
same,LH,"[1]; RA Patient 4, baseline",8
same,"power Doppler (inflammatory activity) on ultrasound, shoulder and right MCP 4","[1]; RA Patient 5, after treatment (FIG. 2B, 2D, 2F)",no power Doppler
same,effusion over the right wrist on ultrasound,"[1]; RA Patient 6, by 3.5 weeks (FIG. 4)",much smaller
same,Physician assessment (0-100),"[1]; baseline, c1-c6=RA Patients 1-6",85 and 90 and 80 and 70
same,timed walk,"[2]; 29 Apr. 2015, after discontinuing Famprydine on 5 Apr. 2015",14.0 s
same,MFIS-5,[2]; baseline,20
same,MSIS-29,[2]; baseline,121
same,MSWS-12,[2]; baseline,60
same,Expanded Disability Status Scale (EDSS),[2]; baseline and 6 weeks,6.5
same,Timed 25 Foot Walk (T25FW),"[2]; baseline, stable Famprydine",16.7 s
same,timed walk,"[2]; by 2 months, with Famprydine",14.0 s
same,timed walk,"[2]; by 4 months, with Famprydine",11.9 s
same,timed walk,"[2]; by 5 months (30 Mar. 2015), with Famprydine",11.8 s
same,MFIS-5,[2]; by 6 weeks,12
same,MFIS-5 reduction,[2]; by 6 weeks,40%
same,MSIS-29,[2]; by 6 weeks,110
same,MSWS-12,[2]; by 6 weeks,53
same,MSWS-12 improvement,[2]; by 6 weeks,12%
same,MSIS-29 score reduction,"[2]; by 6 weeks, clinically significant minimal difference 8",11
same,General function (patient reported),[2]; from around 4 weeks to 6 weeks,a general improvement in their function
same,CRP,[3]; after 3 months,54 mg/L
same,DAS score,[3]; after 3 months,4.2
same,CRP,[3]; baseline,142 mg/L
same,DAS score,[3]; baseline,8.6
same,peripheral GnRH,"peripheral GnRH; Multiple Sclerosis Patient B, after 1 month",210 pg/mL
same,peripheral GnRH,"peripheral GnRH; Multiple Sclerosis Patient B, baseline",318 pg/mL
same,peripheral GnRH,"peripheral GnRH; Psoriasis Patient C, after 3 months",274 pg/mL
same,peripheral GnRH,"peripheral GnRH; Psoriasis Patient C, baseline",300 pg/mL
same,peripheral GnRH,"peripheral GnRH; RA Pt A, after 3 months, 240 mg loading, 80 mg every 2 weeks",359 pg/mL
same,peripheral GnRH,"peripheral GnRH; RA Pt A, baseline",394 pg/mL
same,bone mineral density in hips,[4],improved
